The results in this text go back to US20190375778A1, “ADENOSINE DERIVATIVES FOR USE IN THE TREATMENT OF CANCER” (NuCana plc, priority 2016, published 2019).

One assay concerns human T-lymphocyte CEM. Kind of assay: Cell proliferation (Coulter count) assay, CEM. The format is cell-based. Particulars: 72 h, read-out: absolute IC50, CEM. In outline: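 Cells grown in DMEM with 10% FBS. HeLa seeded at 10 000 cells/well, compound added after 24 h, counted day 5; L1210 and CEM seeded at 60 000 cells/well with compound, counted after 48 h and 72 h respectively. IC50 is concentration halving proliferation by Coulter count.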

The subject of the next assay is KG-1. Kind of assay: CellTiterGlo viability assay, KG-1. The assay is classed as cell-based. Particulars: Homo sapiens, KG-1, 72 h, read-out: IC50 KG-1. The gist of the method:
(§1)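 Duplicate 9-point dose series (3.16-fold steps, highest final level 198 μM) were applied to cells kept in standard culture conditions for ~72 hrs. Endpoint: CellTiterGlo luminescence.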
On the technique in general: In ATP-based viability assays light output follows the ATP content of the culture.

A further assay has as its system THP-1. Kind of assay: CellTiterGlo viability assay, THP-1. The assay is classed as cell-based. The note with it: Homo sapiens, THP-1, 72 h, read-out: IC50 THP-1. On the procedure: (§2) In vitro viability assay were performed to assess the effects of compounds on cell viability in selected cell lines over ˜72 hrs using the CellTiterGlo (CTG, Promega-G7573) assay. The tests were performed in duplicates with treatment of compounds at 9 points, 3.16 folds titration in 96 well plates over ˜72 hrs. The compound starting concentrations were 198 μM. Cell viability assay using CellTiterGlo in 96-well plate were performed. Compound treatment 72 hrs, standard growth conditions, duplicates. Compounds were dissolved to 40 mM with thawed […]. Compounds were serially diluted at 3.16 fold in thawed DMSO, and warmed to 37° C. before being dissolved in media (2 μl+200 μl). After compounds were dissolved in media, media containing compounds were warmed to 37° C. in incubator and then compounds in media were added to cell plates (50 μl+50 μl) in duplicates. The compounds' final concentrations were from […] to 19.9 nM. All compound solubilities were checked and recorded again, then the plates were transferred to CO2 tissue culture incubator immediately and incubated for 3 days. DMSO final concentration is 0.5%.

In a further assay the test system is MiaPaCa-2. Kind of assay: CellTiterGlo viability assay, MiaPaCa-2. The assay is classed as cell-based. Particulars: Homo sapiens, MIA PaCa-2, 72 h, read-out: IC50 MiaPaCa-2. How it is done: as §2
For the next assay, the system named is SW620. The assay can be described thus: CellTiterGlo viability assay, SW620. The format is cell-based. Particulars: Homo sapiens, SW-620, 72 h, read-out: IC50 SW620. On the procedure: as §2
The subject of another assay is HT29. The assay can be described thus: CellTiterGlo viability assay, HT29. The format is cell-based. Particulars: Homo sapiens, HT-29, 72 h, read-out: IC50 HT29. How it is done:
as §2

The next assay has as its system BxPC-3. The assay can be described thus: CellTiterGlo viability assay, BxPC-3. The assay is classed as cell-based. Particulars: Homo sapiens, BXPC-3, 72 h, read-out: IC50 BxPC-3. How it is done: as §2
For the next assay, the system named is MV4-11. Kind of assay: CellTiterGlo viability assay, MV4-11. The format is cell-based. The note with it: Homo sapiens, MV4-11, 72 h, read-out: IC50 MV4-11. In outline: as §1
Another assay deals with RPMI-8226. Kind of assay: CellTiterGlo viability assay, RPMI-8226. The format is cell-based, Human. Particulars: Homo sapiens, RPMI-8226, 72 h, read-out: IC50 RPMI-8226. In outline: as §1
For another assay, the system named is MOLT-4. The assay can be described thus: CellTiterGlo viability assay, MOLT-4. The format is cell-based. The note with it: Homo sapiens, MOLT-4, 72 h, read-out: IC50 MOLT-4. On the procedure: as §2
In assay [1] the test system is KG1a leukaemic stem cell compartment (Lin−/CD34+/CD38−/CD123+). The assay can be described thus: Leukaemic stem cell compartment in KG1a. The format is cell-based.

Take `Nc1ncnc2c1nc(Cl)n2[C@@H]1O[C@H](COP(=O)(NCC(=O)OCc2ccccc2)Oc2ccccc2)[C@@H](O)[C@H]1O` (mixture of isomers) [Compound B, Benzyl 2-(((((2R,3S,4R,5R)-5-(6-amino-8-chloro-9H-purin-9-yl)-3,4-dihydroxytetra-hydrofuran-2-yl)methoxy)(phenoxy)phosphoryl)amino)acetate]: the IC50 in the assay with human T-lymphocyte CEM was 5 to 15 µM; in the assay with KG-1 it was 0.1 to 5 µM; with THP-1, 0.1 to 5 µM; in the assay on MiaPaCa-2 it was 0.1 to 5 µM; with SW620, 0.1 to 5 µM; in the assay on HT29, 0.1 to 5 µM. For the same molecule, the IC50 in the assay with BxPC-3 lay in the range of 5 to 15 µM; in the assay with MV4-11 it was 0.1 to 5 µM; in the assay with RPMI-8226, 0.1 to 5 µM; in the assay with MOLT-4, 0.1 to 5 µM. The “targeting of leukaemic/cancer stem cells in words” value in assay [1] (KG1a, compared to 8-chloroadenosine (FIG. 2, FIG. 8)) is on record as “particularly effective preferential targeting of LSCs”. Further, the “KG-1a (CD34+/CD38−/CD123+) % compartment” value in [1] (LSC as percentage of viable cells left, 72 hrs) is reported as 2.7%.

The IC50 is the concentration that gives 50% inhibition.
